Assay results: patent publication US20240327417A1, “HETEROCYCLIC COMPOUNDS” (BeiGene Switzerland GmbH, priority 2021, published 2024)

Assays:
[1] = target: T1, Full length DGKζ (in-house protein M1-V929) (Homo sapiens, UniProt Q13574); assay: Biochemical DGK IC50 assay (ADP-Glo, lipid micelle substrate), DGKζ; settings: 0.5 nM enzyme, 140 μM ATP, 80 μM DAG, 1 hour preincubation, 1 hour reaction, room temperature, read-out: IC50s for DGKζ
T1 construct: His (N); TEV cleavage site (N); made in house; host or cells: Sf9 insect cells (baculovirus, Bac-to-Bac)
T1 sequence (Q13574 1-929 isoform Q13574-4): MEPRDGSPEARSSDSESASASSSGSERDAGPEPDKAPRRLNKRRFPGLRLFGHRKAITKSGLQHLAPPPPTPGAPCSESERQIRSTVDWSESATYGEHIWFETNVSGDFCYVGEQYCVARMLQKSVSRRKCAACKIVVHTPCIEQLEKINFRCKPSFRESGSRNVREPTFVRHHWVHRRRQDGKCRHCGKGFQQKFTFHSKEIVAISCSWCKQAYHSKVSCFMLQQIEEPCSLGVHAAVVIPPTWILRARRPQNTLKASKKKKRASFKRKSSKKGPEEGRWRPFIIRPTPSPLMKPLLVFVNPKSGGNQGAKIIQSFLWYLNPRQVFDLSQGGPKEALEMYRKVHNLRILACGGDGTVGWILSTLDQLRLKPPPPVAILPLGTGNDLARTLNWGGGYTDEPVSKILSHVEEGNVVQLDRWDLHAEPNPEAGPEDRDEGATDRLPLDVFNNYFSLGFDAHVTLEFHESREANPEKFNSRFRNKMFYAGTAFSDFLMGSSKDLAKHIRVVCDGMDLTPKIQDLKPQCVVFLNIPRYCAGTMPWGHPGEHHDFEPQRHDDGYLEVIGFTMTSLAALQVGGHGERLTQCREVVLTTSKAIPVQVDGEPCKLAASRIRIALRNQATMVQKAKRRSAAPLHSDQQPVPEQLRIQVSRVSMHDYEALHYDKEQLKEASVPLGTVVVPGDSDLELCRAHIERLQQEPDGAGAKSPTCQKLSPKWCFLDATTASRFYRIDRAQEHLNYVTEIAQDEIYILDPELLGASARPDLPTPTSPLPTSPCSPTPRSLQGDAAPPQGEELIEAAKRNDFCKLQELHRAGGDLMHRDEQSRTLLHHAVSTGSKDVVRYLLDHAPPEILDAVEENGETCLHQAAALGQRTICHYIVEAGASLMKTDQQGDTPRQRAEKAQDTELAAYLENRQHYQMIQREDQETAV
Procedure: (§1) Enzymatic reactions of DGKζ, DGKα and DGKδ were performed using ADP-Glo assay with lipid micelle substrate. […] Full length DGKα (D21-10BG, SignalChem) and full length DGKδ (D23-10G, SignalChem) were purchased. Lipid micelle was prepared by dissolving DAG (Sigma, 317505-10MG) and PS (Sigma, P7769-100MG) with chloroform which was firtherly removed by rotary evaporation. The obtained residue was resuspended in buffer containing 25 mM HEPES pH 7.0, 0.5 mM EDTA and 160 mM Octyl β-D glucopyranoside by vigorous mixing and ultrasonic (IID, Scientz).
(§2) The inhibition activities testing for the compound disclosed herein were carried out at room temperature in assay buffer containing 50 mM HEPES, 10 mM MgCl2, 0.01% BSA, 0.1 mM Na3VO4, 0.005% Tween-20 and 0.01 mM CaCl2. Compounds in DMSO were dispensed into wells of a black 384 well plate (Corning 4514) using D300e digital dispenser (Tecan). The ranges of compounds final concentration were 1.55˜10000 nM or 23.3˜150000 nM. 3 μL 2× enzyme solution was added to wells. […] After 1 hour reaction, 5 μL ADP-Glo reagent (Promga V9101) was added and incubated for 40 minutes. 10 μL Kinase Detection reagent was added and incubated for 30 minutes. Luminescence was measured on a microplate reader (PHERAstar FSX, BMG labtech). The IC50s are calculated based on inhibition of enzyme activity in the presence of increasing concentrations of compounds.
Human His-TEV-DGK-zeta-pFastBac1 and human baculovirus samples was generated using the Bac-to-Bac baculovirus expression system (Invitrogen) according to the manufacturer's protocol. The DNA used for expression of DGK-zeta, have SEQ ID Nos: 1. Baculovirus amplification was achieved using infected SF9 cells at 1:2000 virus/cells ratios, and grown for 96 hours at 27° C. post-transfected.
The expression scaled up for each protein was carried out in the […] from CORNING. 4 L of 3×10^6 cells/mL Sf9 cells (Expression System, Invitrogen) grown in SF900™ II SFM insect medium (Expression System) was infected with virus stock at 1:200 virus/cells ratio, and grown for 48 hours at 27° C. post-transfection. The infected cell culture was harvested by centrifugation at 6000 rpm for 15 min 4° C. in a SORVALL LYNX6000 centrifuge. The cell pellets were stored at −80° C.
Full length human DGKζ produced as described above, was purified from Sf9 baculovirus-infected insect cell paste. The cells were lysed using sonication method, and the lysates were clarified by centrifugation.

[2] = target: T2, Full length DGKα (D21-10BG, SignalChem) (Homo sapiens, UniProt P23743); assay: Biochemical DGK IC50 assay (ADP-Glo, lipid micelle substrate), DGKα; settings: 7.5 nM enzyme, 140 μM ATP, 80 μM DAG, 1 hour preincubation, 1 hour reaction, room temperature, read-out: IC50s for DGKα
T2 construct: Full length DGKα (D21-10BG, SignalChem); purchased SignalChem D21-10BG
T2 sequence (P23743 whole entry): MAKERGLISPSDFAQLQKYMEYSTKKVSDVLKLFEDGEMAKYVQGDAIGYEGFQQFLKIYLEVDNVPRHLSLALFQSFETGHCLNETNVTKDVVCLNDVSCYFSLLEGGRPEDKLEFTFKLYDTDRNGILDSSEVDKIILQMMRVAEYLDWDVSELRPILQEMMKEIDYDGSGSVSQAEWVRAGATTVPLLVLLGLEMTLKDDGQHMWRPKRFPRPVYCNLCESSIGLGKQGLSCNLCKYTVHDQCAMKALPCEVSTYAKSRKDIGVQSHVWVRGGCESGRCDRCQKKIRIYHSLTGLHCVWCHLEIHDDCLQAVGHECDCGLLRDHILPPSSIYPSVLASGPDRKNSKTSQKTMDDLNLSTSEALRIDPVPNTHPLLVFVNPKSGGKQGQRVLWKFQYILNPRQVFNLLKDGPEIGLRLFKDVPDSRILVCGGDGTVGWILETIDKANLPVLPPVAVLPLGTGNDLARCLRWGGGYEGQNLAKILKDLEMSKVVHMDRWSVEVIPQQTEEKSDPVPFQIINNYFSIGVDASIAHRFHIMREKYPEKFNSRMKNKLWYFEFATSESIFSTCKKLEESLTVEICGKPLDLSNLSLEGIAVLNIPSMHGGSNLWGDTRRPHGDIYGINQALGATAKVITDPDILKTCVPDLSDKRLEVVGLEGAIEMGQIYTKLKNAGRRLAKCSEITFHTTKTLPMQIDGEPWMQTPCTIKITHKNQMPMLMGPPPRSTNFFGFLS
Procedure: as §1, §2

SMILES	IC50 [1]	IC50 [2]
CC[C@H]1CN(C(C)c2ccc3nccnc3c2)[C@H](CC)CN1c1cc(=O)n(C)n2cc(COC)nc12 (single isomer, unassigned) [Compound A8a]	0.025 µM	1.31 µM
CC[C@H]1CN(C(C)c2ccc(C3CC3)nc2)[C@H](CC)CN1c1c(F)c(=O)n(C)n2cc(CC#N)nc12 (single isomer, unassigned) [Compound A73a]	0.077 µM	0.177 µM
CC[C@H]1CN(C(C)c2ccc3nc(C)sc3c2)[C@H](CC)CN1c1cc(=O)n(C)n2cc(C=NOC)nc12 (single isomer, unassigned) [Compound A123d]	> 10 µM	0.749 µM
CC[C@H]1CN(C(C)c2ccc(C3CC3)nc2F)[C@H](CC)CN1c1cc(=O)n(C)n2cc(CC#N)nc12 (single isomer, unassigned) [Compound A42b]	1.25 µM	1.06 µM
CC[C@H]1CN(C(C)c2ccc3ncsc3n2)[C@H](CC)CN1c1c(C#N)c(=O)n(C)n2cc(CC#N)nc12 (stereo partly drawn) [Compound A114, 2-(cyanomethyl)-8-((2S,5R)-2,5-diethyl-4-(1-(thiazolo[5,4-b]pyridin-5-yl)ethyl)piperazin-1-yl)-5-methyl-6-oxo-5,6-dihydroimidazo[1,2-b]pyridazine-7-carbonitrile]	0.127 µM	0.068 µM
CC[C@@H]1CN(c2c(C#N)c(=O)n(C)n3cc(CC#N)nc23)[C@@H](C)CN1C(C)c1ccc2nc(C)sc2n1 (single isomer, unassigned) [Compound A113b]	2.91 µM	0.651 µM
CC(c1ccc2c(c1)OC(C)(C)CO2)N1C[C@H](C)N(c2c(F)c(=O)n(C)n3cc(CC#N)nc23)C[C@H]1C (single isomer, unassigned) [Compound A26a]	0.019 µM	2.89 µM
CC[C@H]1CN(C(C)c2ccc3nccnc3c2)[C@H](CC)CN1c1cc(=O)[nH]n2cc(CC#N)nc12 (stereo partly drawn) [Compound A15, 2-(8-((2S,5R)-2,5-diethyl-4-(1-(quinoxalin-6-yl)ethyl)piperazin-1-yl)-6-oxo-5,6-dihydroimidazo[1,2-b]pyridazin-2-yl)acetonitrile]	3.87 µM	4.38 µM
CCC(c1ccc(C2CC2)nc1)N1C[C@H](CC)N(c2cc(=O)n(C)n3cc(CC#N)nc23)C[C@H]1CC (single isomer, unassigned) [Compound A89b]	1.01 µM	1.52 µM
[2H]C([2H])([2H])n1c(=O)cc(N2C[C@@H](CC)N(C(C)c3ccc4nc(C)sc4c3)C[C@@H]2CC)c2nc(CC#N)cn21 (single isomer, unassigned) [Compound A94b]	1.15 µM	3.79 µM
CC[C@H]1CN(C(C)c2ccc3scnc3c2)[C@H](CC)CN1c1cc(=O)n(C)n2cc(CC#N)nc12 (single isomer, unassigned) [Compound A65a]	0.007 µM	0.047 µM
CC[C@@H]1CN(c2cc(=O)n(C)n3cc(CC#N)nc23)[C@@H](C)CN1C(C)c1cc2sc(C)nc2cc1F (single isomer, unassigned) [Compound A60b]	2.93 µM	4.41 µM
CC[C@H]1CN(C(C)c2ccc3ncsc3n2)[C@H](CC)CN1c1c(F)c(=O)n(C)n2cc(CC#N)nc12 (single isomer, unassigned) [Compound A81a]	1.26 µM	–
CC[C@@H]1CN(c2cc(=O)n(C)n3cc(CC#N)nc23)[C@@H](C)CN1C(C)c1ccc2nccnc2c1 (single isomer, unassigned) [Compound A13b]	3.61 µM	4.18 µM
CC[C@H]1CN(C(C)c2ccc(C3CC3)nc2)[C@H](CC)CN1c1c(F)c(=O)n(C)n2cc(CC#N)nc12 (single isomer, unassigned) [Compound A73b]	0.302 µM	0.832 µM
[2H]C([2H])([2H])C(c1ccc2nc(C)sc2c1)N1C[C@H](CC)N(c2cc(=O)n(C([2H])([2H])[2H])n3cc(CC#N)nc23)C[C@H]1CC (single isomer, unassigned) [Compound A95a]	0.027 µM	0.101 µM

SMILES	IC50 [1]	IC50 [2]
CC[C@H]1CN(C(C)c2ccc3scnc3c2)[C@H](CC)CN1c1cc(=O)n(C)n2cc(CC#N)nc12 (stereo partly drawn) [Compound A65, 2-(8-((2S,5R)-4-(1-(benzo[d]thiazol-5-yl)ethyl)-2,5-diethylpiperazin-1-yl)-5-methyl-6-oxo-5,6-dihydroimidazo[1,2-b]pyridazin-2-yl)acetonitrile]	0.018 µM	0.036 µM
CC[C@@H]1CN(c2cc(=O)n(C)n3cc(CC#N)nc23)[C@@H](COC)CN1C(C)c1ccc2nc(C)sc2n1 (single isomer, unassigned) [Compound A108b]	0.182 µM	0.51 µM
CC[C@@H]1CN(c2cc(=O)n(C)n3cc(CC#N)nc23)[C@@H](C)CN1C(C)c1ccc2nc(C)sc2n1 (single isomer, unassigned) [Compound A84a]	0.052 µM	0.169 µM
COCc1cn2c(n1)c(N1C[C@@H](C)N(C(C)c3ccc4nccnc4c3)C[C@@H]1C)cc(=O)n2C (stereo partly drawn) [Compound A4, 8-((2S,5R)-2,5-dimethyl-4-(1-(quinoxalin-6-yl)ethyl)piperazin-1-yl)-2-(methoxymethyl)-5-methylimidazo[1,2-b]pyridazin-6(5H)-one]	0.48 µM	4 µM
CC[C@H]1CN(C(C)c2ccc3ncsc3c2)[C@H](CC)CN1c1cc(=O)n(C)n2cc(CC#N)nc12 (single isomer, unassigned) [Compound A53b]	0.215 µM	0.235 µM
CCc1nc2ccc(C(C)N3C[C@H](CC)N(c4cc(=O)n(C)n5cc(CC#N)nc45)C[C@H]3CC)cc2s1 (single isomer, unassigned) [Compound A100a]	0.019 µM	0.297 µM
CC[C@H]1CN(C(C)c2ccc(C(C)(C)C#N)nc2)[C@H](CC)CN1c1cc(=O)n(C)n2cc(CC#N)nc12 (stereo partly drawn) [Compound A40, 2-(5-(1-((2R,5S)-4-(2-(cyanomethyl)-5-methyl-6-oxo-5,6-dihydroimidazo[1,2-b]pyridazin-8-yl)-2,5-diethylpiperazin-1-yl)ethyl)pyridin-2-yl)-2-methylpropanenitrile]	0.124 µM	0.297 µM
CC[C@@H]1CN(c2cc(=O)n(C)n3cc(C=NOC)nc23)[C@@H](C)CN1C(C)c1ccc2nccnc2c1 (single isomer, unassigned) [Compound A9c]	> 10 µM	2.17 µM
CC[C@H]1CN(C(C)c2ccc3nc(C)sc3c2F)[C@H](C)CN1c1cc(=O)n(C)n2cc(CC#N)nc12 (single isomer, unassigned) [Compound A119b]	0.051 µM	0.34 µM
CC(c1ccc2c(c1)OCCO2)N1C[C@H](C)N(c2cc(=O)n(C)n3cc(CC#N)nc23)C[C@H]1C (stereo partly drawn) [Compound A24, 2-(8-((2S,5R)-4-(1-(2,3-dihydrobenzo[b][1,4]dioxin-6-yl)ethyl)-2,5-dimethylpiperazin-1-yl)-5-methyl-6-oxo-5,6-dihydroimidazo[1,2-b]pyridazin-2-yl)acetonitrile]	0.23 µM	2.87 µM
CC[C@@H]1CN(c2cc(=O)n(C)n3cc(CC#N)nc23)[C@@H](C)CN1C(C)c1ccc2nc(C)sc2c1F (single isomer, unassigned) [Compound A63a]	0.006 µM	0.683 µM
CC[C@H]1CN(C(C)c2ccc3nc(C)sc3n2)[C@H](C)CN1c1cc(=O)n(C)n2cc(CC#N)nc12 (single isomer, unassigned) [Compound A121b]	0.143 µM	0.05 µM
CC[C@H]1CN(C(C)c2ccc3ncsc3n2)[C@H](CC)CN1c1c(F)c(=O)n(C)n2cc(CC#N)nc12 (single isomer, unassigned) [Compound A81b]	0.032 µM	–
CC[C@@H]1CN(c2cc(=O)n(C)n3cc(CC#N)nc23)[C@@H](C)CN1C(C)c1ccc2ncsc2n1 (single isomer, unassigned) [Compound A80a]	0.044 µM	–
CC[C@@H]1CN(c2cc(=O)n(C)n3cc(CC#N)nc23)[C@@H](C)CN1C(C)c1ccc2ncsc2n1 (single isomer, unassigned) [Compound A80b]	8.16 µM	–
